Among the test systems are OVCAR-4; CCRF-CEM; MOLT-4; HCT-116; A549; Malme-3M; CAKI-1; SN12C; TK-10; NCI-H23; NCI-H522; NCI-H226; K562; UACC-62; SNB-75; RXF 393; SK-OV-3; HCT-15; UO-31.
Holding throughout (test): DTP human tumour cell line panel, 48 h

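Exposure lasted 48 hours, with cells grown in 96-well plates and compounds tested at five concentrations. GI50 marks 50% less growth.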 Calls of active or inactive are those of the source. Cut-off read from the data, not from the text of the source: active = GI50 up to about 1.1 µM and inactive = higher. A value given as a limit tells only on which side of the number the result lay.

In general, GI50 refers to the concentration that inhibits growth by half. For `Cc1ccc(C(=O)O/N=C2/CCC/C2=C\c2ccccc2)cc1`, the GI50 in the experiment on OVCAR-4, with CCRF-CEM, in the experiment with MOLT-4, in the experiment with HCT-116, with A549 and in the experiment with Malme-3M was > 100 µM (inactive) in each case. For the same compound, the GI50 with CAKI-1, in the experiment on SN12C, in the experiment with TK-10, with NCI-H23, with NCI-H522 and with NCI-H226 was > 100 µM (inactive) throughout. The GI50 in the experiment on K562 was > 100 µM (inactive); in the experiment with UACC-62 it was > 100 µM (inactive); in the experiment with SNB-75 it was 69.3 µM (inactive); with RXF 393, > 100 µM (inactive); in the experiment on SK-OV-3 it was > 100 µM (inactive); in the experiment with HCT-15, over 100 µM. In the experiment with UO-31, the GI50 is > 100 µM (inactive).

Regarding `OCC[N+]12CCCN1CCC2`, the GI50 in the experiment on OVCAR-4, with CCRF-CEM, in the experiment on MOLT-4, with HCT-116, in the experiment with A549 and with Malme-3M was > 100 µM (inactive) each time. The GI50 with CAKI-1, in the experiment with SN12C, in the experiment with TK-10, with NCI-H23, with NCI-H522 and in the experiment with NCI-H226 was > 100 µM (inactive) throughout. The GI50 was > 100 µM (inactive) in the experiment on K562; > 100 µM (inactive) with UACC-62; 61.7 µM (inactive) with SNB-75; > 100 µM (inactive) in the experiment with RXF 393; > 100 µM (inactive) with SK-OV-3; over 100 µM in the experiment with HCT-15. Moreover, the GI50 with UO-31 is > 100 µM (inactive).

Turning to `N#C/C(=C1\SC(/N=N/c2ccc(Cl)cc2)C(=O)N1c1ccccc1)c1nc2ccccc2[nH]1` (centres undefined), the GI50 with OVCAR-4 was 23 µM (inactive); with CCRF-CEM, 16.9 µM (inactive); in the experiment on HCT-116 it was 46 µM (inactive); in the experiment on A549 it was 29.7 µM (inactive); in the experiment with Malme-3M it was 28.4 µM (inactive); with CAKI-1, 48.4 µM (inactive). Also, the GI50 in the experiment with SN12C was 96.8 µM (inactive); in the experiment with TK-10, 24.9 µM (inactive); with NCI-H23, 17.3 µM (inactive); with NCI-H522 it was 23.8 µM (inactive); with NCI-H226, 23.4 µM (inactive); in the experiment with K562, 14.1 µM (inactive). Besides, the GI50 was 31.4 µM (inactive) with UACC-62; 25.9 µM (inactive) in the experiment on SNB-75; 36.6 µM (inactive) in the experiment with RXF 393; 15.5 µM (inactive) with SK-OV-3; 65.8 µM in the experiment with HCT-15; 19.8 µM (inactive) in the experiment on UO-31.

Take `CN1S(=O)(=O)N(C)P12(N=P(CP(=NP13(N(C)S(=O)(=O)N1C)N(C)S(=O)(=O)N3C)(c1ccccc1)c1ccccc1)(c1ccccc1)c1ccccc1)N(C)S(=O)(=O)N2C`: the GI50 with CCRF-CEM, in the experiment with MOLT-4, in the experiment with HCT-116, in the experiment on A549, with Malme-3M and in the experiment on CAKI-1 was > 100 µM (inactive) throughout. Also, the GI50 in the experiment on SN12C, in the experiment on TK-10, in the experiment on NCI-H23, in the experiment on NCI-H522, in the experiment with NCI-H226 and with K562 was > 100 µM (inactive) each time. Moreover, the GI50 in the experiment on UACC-62 is > 100 µM (inactive); with SNB-75 it was > 100 µM (inactive); with RXF 393 it was > 100 µM (inactive); with SK-OV-3, > 100 µM (inactive); in the experiment with HCT-15, over 100 µM; in the experiment on UO-31, > 100 µM (inactive).

These data come from ChEMBL document CHEMBL1201862, “PubChem BioAssay data set” (2004).
